In patent publication US7132504B2, “Hepatitis C virus inhibitors” (Bristol-Myers Squibb Company, priority 2003, dated 2006):

Assays:
[1] = molecular target: T1, NS3/4A protease complex, J4L6S strain (Hepatitis C virus genotype 1b, UniProt O92972, C1454S/C1711G); assay: Recombinant HCV NS3/4A protease complex FRET peptide assay, J4L6S strain; assay type: biochemical, HCV genotype 1b (J4L6S)
T1 construct: DNA encoding the recombinant HCV NS3/4A protease complex (amino acids 1027 to 1711) for these strains; inferred from pET21b vector and Ni-NTA purification; made in house; host or cells: Escherichia coli BL21 (DE3), pET21b
From the text: (§1) The purpose of this in vitro assay was to measure the inhibition of HCV NS3 protease complexes, derived from the BMS strain, H77 strain or J416S strain, as described below, by compounds of the present invention. This assay provides an indication of how effective compounds of the present invention would be in inhibiting HCV proteolytic activity.
(§2) Serum from an HCV-infected patient was obtained from Dr. T. Wright, San Francisco Hospital. An engineered full-length cDNA (compliment deoxyribonucleic acid) template of the HCV genome (BMS strain) was constructed from DNA fragments obtained by reverse transcription-PCR (RT-PCR) of serum RNA (ribonucleic acid) and using primers selected on the basis of homology between other genotype 1a strains. From the determination of the entire genome sequence, a genotype 1a was assigned to the HCV isolate according to the classification of Simmonds et al. (See P Simmonds, K A Rose, S Graham, S W Chan, F McOmish, B C Dow, E A Follett, P L Yap and H Marsden, J. Clin. Microbiol., 31(6), 1493–1503 (1993)). […]

[2] = molecular target: BMS strain of the NS3/4A protease complex (UniProt P27958, C1454S/C1711G, species not given/STRAIN_BMS); assay: Recombinant HCV NS3/4A protease complex FRET peptide assay, BMS strain; assay type: biochemical, HCV genotype 1a (BMS strain)
From the text: as §1, §2

[3] = molecular target: T2, porcine pancreatic elastase (PPE) (Sus scrofa, UniProt P00772); assay: Specificity assay, porcine pancreatic elastase; assay type: biochemical; conditions: 2 h enzyme-inhibitor pre-incubation
T2 construct: purchased Sigma
Method: (§3) The specificities of compounds of the present invention were determined against a variety of serine proteases: human neutrophil elastase (HNE), porcine pancreatic elastase (PPE) and human pancreatic chymotrypsin and one cysteine protease: human liver cathepsin B. In all cases a 96-well plate format protocol using colorimetric p-nitroaniline (pNA) substrate specific for each enzyme was used as described previously (PCT Patent Application No. WO 00/09543) with some modifications to the serine protease assays. All enzymes were purchased from Sigma while the substrates were from Bachem.
(§4) Each assay included a 2 h enzyme-inhibitor pre-incubation at room temperature followed by addition of substrate and hydrolysis to ˜30% conversion as measured on a Spectramax Pro microplate reader. Compound concentrations varied from 100 to 0.4 μM depending on their potency. […]
(§5) The percentage of inhibition was calculated using the formula: [1−((UVinh−UVblank)/(UVctl−UVblank))]×100 […]

[4] = system: human pancreatic chymotrypsin; assay: Specificity assay, chymotrypsin; assay type: biochemical; conditions: 2 h enzyme-inhibitor pre-incubation
Method: as §3, §4, §5

T1 sequence (O92972 1027-1711 C1454S/C1711G, one chain of several): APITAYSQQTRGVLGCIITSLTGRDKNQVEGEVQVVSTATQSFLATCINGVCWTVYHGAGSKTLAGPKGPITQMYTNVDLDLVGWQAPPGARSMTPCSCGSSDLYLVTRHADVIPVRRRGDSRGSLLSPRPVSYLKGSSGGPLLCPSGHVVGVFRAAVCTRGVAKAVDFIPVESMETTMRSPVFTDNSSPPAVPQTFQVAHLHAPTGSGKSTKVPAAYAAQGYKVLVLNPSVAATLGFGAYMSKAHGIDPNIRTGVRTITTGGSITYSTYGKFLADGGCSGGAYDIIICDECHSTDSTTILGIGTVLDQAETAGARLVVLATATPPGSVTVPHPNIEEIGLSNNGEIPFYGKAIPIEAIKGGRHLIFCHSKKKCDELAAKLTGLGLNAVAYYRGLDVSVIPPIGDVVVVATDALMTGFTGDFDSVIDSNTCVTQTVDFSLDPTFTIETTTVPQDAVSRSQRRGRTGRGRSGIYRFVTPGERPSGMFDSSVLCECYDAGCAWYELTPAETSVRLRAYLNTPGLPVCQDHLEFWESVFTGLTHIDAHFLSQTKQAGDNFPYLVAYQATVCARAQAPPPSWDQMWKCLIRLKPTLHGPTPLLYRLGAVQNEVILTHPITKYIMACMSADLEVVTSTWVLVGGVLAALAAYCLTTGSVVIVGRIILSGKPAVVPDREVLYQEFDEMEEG
T2 sequence (P00772 27-266): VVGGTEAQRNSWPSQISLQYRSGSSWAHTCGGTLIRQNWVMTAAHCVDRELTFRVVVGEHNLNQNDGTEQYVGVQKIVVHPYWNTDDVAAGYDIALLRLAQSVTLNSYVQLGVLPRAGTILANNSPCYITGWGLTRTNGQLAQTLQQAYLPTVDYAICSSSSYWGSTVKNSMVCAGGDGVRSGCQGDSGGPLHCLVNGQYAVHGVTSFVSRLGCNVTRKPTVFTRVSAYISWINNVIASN

C=CC1C[C@]1(NC(=O)[C@@H]1C[C@@H](Oc2cc(-c3ccccc3)nc3cc(OC)ccc23)CN1C(=O)[C@@H](NC(=O)OC)C(C)(C)C)C(=O)NS(=O)(=O)N(C)Cc1ccccc1 (stereo partly shown) [Compound 9]
IC50 [1]: 41 nM
IC50 [2]: 128 nM
IC50 [3]: > 200000 nM
IC50 [4]: > 200000 nM
